This is an account of results in US7202084B2, “Beta-alanine N-methyltransferase” (University of Florida Research Foundation, Inc., priority 2001, dated 2007).

Test [1] addresses T1, L. latifolium NMTase (Limonium latifolium, UniProt Q84N56).
T1 sequence (Q84N56 1-375): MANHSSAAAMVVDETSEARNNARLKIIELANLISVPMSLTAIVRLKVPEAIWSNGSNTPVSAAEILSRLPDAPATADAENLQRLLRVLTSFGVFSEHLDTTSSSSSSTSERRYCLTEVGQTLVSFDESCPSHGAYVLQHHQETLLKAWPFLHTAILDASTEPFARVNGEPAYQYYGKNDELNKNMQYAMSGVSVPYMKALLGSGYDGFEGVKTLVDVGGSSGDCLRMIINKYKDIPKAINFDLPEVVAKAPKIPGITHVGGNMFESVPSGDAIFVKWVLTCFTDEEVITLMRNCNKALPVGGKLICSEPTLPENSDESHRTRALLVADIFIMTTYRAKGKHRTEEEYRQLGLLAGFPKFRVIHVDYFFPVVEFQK
The experiment in a line: Kinetic characterization of NMTase, radiometric assay. It counts as biochemical. The procedure:
Enzyme Assay. […] Following incubation at 30° C. for 30 minutes, the reactions were stopped by the addition of 10 μL of 10% (w/v) trichloroacetic acid containing 1 mM of methylated products as unlabeled carrier. Activated charcoal (38 mg.ml^-1) in 0.1 N acetic acid, 250 μL per assay, was added and centrifuged for five minutes. The radioactive product in the supernatant was quantified in 75% Ready Gel using a liquid scintillation counter (Beckman Instruments, Fullerton, Calif.). […] Kinetic Characterization. […] Kinetic constants were derived from the X and Y intercepts of a linear plot of s/v versus s drawn from triplicate assay results. Henderson, P J F (1993) Statistical analysis of enzyme kinetic data. In […]., Enzyme assays a practical approach, IRL Press, Oxford, pp. 276-316.

Test [2] addresses T1, L. latifolium NMTase. As to the kind of experiment: Effect of a thiol reagent on NMTase activities. Format: biochemical. Conditions: for % Activity DM: N,N-dimethyl β-alanine as methyl acceptor; for % Activity DM / % Activity MM / % Activity BA: mean ± SE, n=3; for % Activity MM: N-methyl β-alanine as methyl acceptor; for % Activity BA: β-alanine as methyl acceptor. The procedure: Enzyme Assay. […] The assay mixture contained 54 μL of enzyme preparation in a total volume of 100 μL containing 0.1 M Tris-HCl buffer pH 8.0, 2 mM DTT, 10 mM methyl acceptor, 100 μM AdoMet and 0.027 μM S-Adenosyl-L-[methyl-^3H]Met (200 nCi of radioactivity). Following incubation at 30° C. for 30 minutes, the reactions were stopped by the addition of 10 μL of 10% (w/v) trichloroacetic acid containing 1 mM of methylated products as unlabeled carrier. Activated charcoal (38 mg.ml^−1) in 0.1 N acetic acid, 250 μL per assay, was added and centrifuged for five minutes. The radioactive product in the supernatant was quantified in 75% Ready Gel using a liquid scintillation counter (Beckman Instruments, Fullerton, Calif.). The counting efficiency was 30%.
Effect of a Thiol Reagent. Protein purified using PEG precipitation was assayed with or without added DTT in the presence and absence of the thiol reagent p-hydroxymercuribenzoic acid.

[3] abbreviates: 0.2 mM pHMB 10 min + 5 mM DTT for 30 min, relative to control.
[4] abbreviates: Minus DTT plus 0.2 mM pHMB, relative to control with 5 mM DTT.

As for `C[S+](CC[C@H](N)C(=O)[O-])C[C@H]1O[C@@H](n2cnc3c(N)ncnc32)[C@H](O)[C@@H]1O` (stereo partly drawn) [Ado-Met, S-adenosyl-L-methionine], the “Concentration above which substrate inhibition was exhibited” value on L. latifolium NMTase [1] (at 10 mM β-alanine) is reported as “above 200 μM”.

Consider `Nc1ncnc2c1ncn2[C@@H]1O[C@H](CSCC[C@H](N)C(=O)O)[C@@H](O)[C@H]1O` [AdoHCy, S-adenosyl-L-homocysteine], for which, at L. latifolium NMTase [1], the “Inhibition of NMTase (in words)” value is on record as “highly inhibitory”. On L. latifolium NMTase [1] (read-out: Concentration giving 50% inhibition of NMTase, 10 mM β-alanine and 100 μM Ado-Met), the IC50 turned out to be 40 µM.

Take `O=C(O)c1cc[c]([Hg+])cc1.[OH-]` [pHMB, p-hydroxymercuribenzoate]: on L. latifolium NMTase [2], the “Inhibition of NMTase (in words)” value is on record as “highly inhibited” and the “Reversibility of the inhibition by DTT” value is listed as “partially reversible”. Further, on L. latifolium NMTase [2] (setting [3]), the “% Activity DM” value turned out to be 55.2 ± 7.6%, the “% Activity MM” value is recorded as 23.0 ± 2.9% and the “% Activity BA” value is 22.6 ± 2.9%. On L. latifolium NMTase [2] (setting [4]), the “% Activity DM” value is listed as 0.4 ± 0.2%, the “% Activity MM” value is on record as 2.4 ± 1.4% and the “% Activity BA” value amounted to 1.3 ± 0.7%.
